Drawing on paper PMC12040169 (PLOS Biology, 2025), this text covers viability for 60 compounds.

The term viability denotes a read-out of living cells in per cent, often relative to untreated cells.

The data set in a line: in vitro. The note with it: human, hela cells, % viability.
`Cc1cc(S(=O)(=O)NCc2ccccc2-n2ccnc2)ccc1F` [CBK281477]: the viability at 28.5 h, 10 µM was found to be 92.1%. To `Cc1nn(C)c(C)c1CN(C(=O)C(C)Oc1cccc(F)c1)C1CC1` (stereo not drawn) [CBK281479] belongs 93.7%; to `Cc1nn(C)c(C)c1CN(C(=O)C(C)Oc1ccccc1F)C1CC1` (stereo not drawn) [CBK281480], 86.6%; to `Cc1nn(CC(=O)NC(C)c2cccnc2)c(C)c1C` (stereo not drawn) [CBK281489], 102%. As for `c1ccc(Cn2cncc2-c2cncn2CCCN2CCCCC2)cc1` [CBK281490], the viability at 28.5 h, 10 µM worked out at 114%. To `Cc1nn(C)cc1-c1cncn1CCCC(C)(C)CO` [CBK281492] belongs 86.1%. To `CC1CCN(Cc2c(-c3cccnc3)[nH]c3cccnc23)CC1` [CBK281494] belongs 98.8%; to `c1nn(C2CCCCC2)cc1-c1cncn1CCCN1CCCCC1` [CBK281495], 97.5%. For the compound `CCCn1nc(C)c(-c2cncn2CCCN2CCCCC2)c1C` [CBK281496], the viability at 28.5 h, 10 µM is 100%.

On to `Cc1cccc(OCCn2cncc2-c2cnn(C)c2)c1C` [CBK281497], for which the viability at 28.5 h, 10 µM was 99.5%. The result for `Cc1ccc2oc(C(=O)N3CCC(Oc4cccnc4)CC3)cc2c1` [CBK281498] reads 106%; that for `O=C(c1cccc(-c2ccc(F)cc2)c1)N1CC(O)C1` [CBK281499], 100%; that for `Cc1nn(C)cc1-c1cncn1CCOc1ccc(Cl)cc1` [CBK281508], 87.5%. To `CCOc1ccc2c(c1)cc(C(=O)N(C)CC(F)(F)F)n2C` [CBK281509] belongs 80.7%; to `CC(CCc1ccc(F)cc1)NC(=O)c1cc2c([nH]c1=O)CCC2` (stereo not drawn) [CBK281512], 91.9%; to `CN(CCN1CCCCC1)C(=O)Cn1cnc2ccccc21` [CBK281515], 90.6%. To `O=C(NCc1cccc(OCC2CCCO2)c1)C1C2CCCCC21` (stereo not drawn) [CBK281517] belongs 94.3%; to `Cc1c(CNCCN2CCCC2=O)c2ccccc2n1C` [CBK281519], 84.6%; to `c1csc(CN2CCC(c3cc4nccnc4[nH]3)CC2)c1` [CBK281520], 88.9%. With `CNS(=O)(=O)c1ccc2c(c1)CCN2C(=O)C1C2CCCCC21` (stereo not drawn) [CBK281521], the viability at 28.5 h, 10 µM turned out to be 100%. To `Fc1cccc(Nc2nc(C3CCNCC3)c3ccccn23)c1` [CBK281522] belongs 107%. Take `CCn1c(C(C)C)nc2cc(NC(=O)Cc3c(C)noc3C)ccc21` [CBK281527]: the viability at 28.5 h, 10 µM worked out at 90.3%. The result for `CC(CCCc1ccccc1)NC(=O)c1cc2c([nH]c1=O)CCC2` (stereo not drawn) [CBK281528] reads 87.6%; that for `CC(Cn1cncn1)C(=O)N1CCC(CCc2ccccc2F)CC1` (stereo not drawn) [CBK281529], 96%; that for `CCn1nc(C)c(C(C)NC(=O)CC(C)n2nc(C)cc2C)c1C` (stereo not drawn) [CBK281533], 78.9%. Consider `CCn1nc(C)c(C(C)NC(=O)c2ccn(C(F)F)n2)c1C` (stereo not drawn) [CBK281534], for which the viability at 28.5 h, 10 µM was determined as 79.8%. The result for `CC(C)n1nccc1NC(=O)CCn1ccnc1-c1ccccc1` [CBK281536] reads 88.3%. The result for `Cc1nn(C(C)CC(=O)Nc2ccnn2C(C)C)c(C)c1Cl` (stereo not drawn) [CBK281537] reads 95.8%; that for `Cc1cc(C)n(C(C)CC(=O)Nc2cccc(OC(C)C)c2)n1` (stereo not drawn) [CBK281538], 96.5%.

Regarding `Cc1nccn1CC(=O)N1CCCC1(C)C(=O)NC1CCCC1` (stereo not drawn) [CBK281539], the viability at 28.5 h, 10 µM was 98.7%. The result for `Clc1ccc(OCC2CCN(Cc3c[nH]cn3)CC2)cc1` [CBK281543] reads 82.7%.

Consider `CC(Oc1ccccc1F)C(=O)N1CCCCC1CN(C)C` (stereo not drawn) [CBK281544], for which the viability at 28.5 h, 10 µM was found to be 89.5%. The result for `CCCn1ncc(C(=O)N2CCc3c([nH]c4ccccc34)C2C)c1C` (stereo not drawn) [CBK281546] reads 98.3%. To `CCCn1c(C)cc2cc(NC(=O)C(C)n3ccnc3)ccc21` (stereo not drawn) [CBK281547] belongs 85.8%.

`CCCn1c(C)cc2cc(NC(=O)Cn3ccnc3)ccc21` [CBK281549]: the viability at 28.5 h, 10 µM stood at 92.4%. Take `CCn1nc(C)c(C(C)NC(=O)C(C)n2cc(Cl)cn2)c1C` (stereo not drawn) [CBK281550]: the viability at 28.5 h, 10 µM stood at 89.7%.

For `CCn1cc(-c2cncn2CCN(C)C2CCCC2)cn1` [CBK281551], the viability at 28.5 h, 10 µM turned out to be 90.7%. The result for `CCn1cncc1C(=O)NCC1(c2ccccc2F)CCOCC1` [CBK281555] reads 90.9%; that for `CCn1cc(-c2cncn2CC(C)N2CCCCC2)cn1` (stereo not drawn) [CBK281556], 103%; that for `Cc1nn(C(C)CC(=O)NCCN2CCC(C)CC2)c(C)c1Cl` (stereo not drawn) [CBK281558], 90.2%.

Regarding `O=C(NCCCc1ccc(Cl)cc1)c1cc2c([nH]c1=O)CCC2` [CBK281560], the viability at 28.5 h, 10 µM came out at 89%. As for `CCc1cc(CNC(=O)C2CN(Cc3ccc(Cl)cc3)C2)on1` [CBK281564], the viability at 28.5 h, 10 µM stood at 97.8%. To `CCn1cc(-c2cncn2CC(C)N2CCC(C)CC2)cn1` (stereo not drawn) [CBK281565] belongs 91.7%; to `Cc1cc(C)n(C)c(=O)c1C(=O)NCCCc1ccc(Cl)cc1` [CBK281566], 88.2%.

On to `Cc1ccc2c(NC(=O)c3cc4c([nH]c3=O)CCC4)c(C)ccc2n1` [CBK281568], for which the viability at 28.5 h, 10 µM came out at 93%. As for `Cc1nn(CC(C)C(=O)NCCN2CCC(C)CC2)c(C)c1Cl` (stereo not drawn) [CBK281570], the viability at 28.5 h, 10 µM stood at 94.2%. To `Cc1nn(CCC(=O)NCCN2CCC(C)CC2)c(C)c1Cl` [CBK281571] belongs 104%. To `Cc1ccc(C2(CNC(=O)CCc3ccncc3)CCOCC2)cc1` [CBK281574] belongs 93.7%. To `Cn1c(C(=O)NCCc2cnccn2)cc2cc(Cl)ccc21` [CBK281575] belongs 90.9%; to `Cn1c(CN2CCN(C3CCCC3)C(=O)C2)nc2ccccc21` [CBK281577], 100%. With `Cc1nc(-c2n[nH]cc2-c2ccccc2F)sc1CCN` [CBK281578], the viability at 28.5 h, 10 µM came out at 102%. The result for `Cc1nccn1Cc1ccccc1C(=O)NCCn1ccnc1` [CBK281580] reads 84.7%; that for `Cc1cc(=O)n(CC(=O)NCCn2ccnc2)c2ccccc12` [CBK281583], 94.3%. The result for `Cc1cc(C)n(-c2cccc(C(=O)NCCn3ccnc3)c2)n1` [CBK281585] reads 109%; that for `CCc1[nH]c(=O)c(C(=O)N2CCc3[nH]c4c(C)cccc4c3C2)cc1C` [CBK281586], 97.6%; that for `Cc1nn(C)c(C)c1CN(C)C(=O)c1cc(-c2ccc(F)cc2)on1` [CBK281587], 82.2%. The result for `Cc1ccc(C2(C(=O)NCCCn3ccnc3C)CCOCC2)cc1` [CBK281588] reads 91.6%; that for `Cc1nn(C)c(C)c1CN(C)S(=O)(=O)Cc1ccc(F)cc1` [CBK281590], 86.8%. Regarding `Cc1ccc(C(NC(=O)Cn2ccnc2)c2ccncc2)cc1C` (stereo not drawn) [CBK281591], the viability at 28.5 h, 10 µM is 87.4%. As for `CCn1nc(C)c(-c2cncn2CC(C)N2CCC(C)CC2)c1C` (stereo not drawn) [CBK281593], the viability at 28.5 h, 10 µM is 103%.
